ChEMBL document CHEMBL4330116, “Harzianoic acids A and B, new natural scaffolds with inhibitory effects against hepatitis C virus” (Bioorg Med Chem, 2019)
The source made the active and inactive calls. The calls are words filed in the database; no cut-off is given here.

Test system: Vesicular stomatitis virus
Experiment: Antiviral activity against VSV pseudoparticles infected in human Huh7.5 cells infected with VSV pseudoparticles expressed in 293T cells with plasmid encoding vesicular stomatitis G protein, envelope and Vpr deficient HIV vector carrying luciferase reporter gene inserted into Nef position assessed as inhibition of pseudoparticle entry at 6.25 to 100 uM after 72 hrs by luciferase reporter gene assay
Format: functional, organism-based

SMILES | inhibition
CC(=O)[C@@H]1C[C@H](C(=O)O)[C@@]1(C)CC/C=C(\C)C(=O)O | inactive
C/C(=C\CC[C@]1(C)[C@@H](C(=O)O)C[C@H]1[C@](C)(O)C(=O)O)C(=O)O | inactive
